From ChEMBL document CHEMBL4024779, “Novel Terminal Bipheny-Based Diapophytoene Desaturases (CrtN) Inhibitors as Anti-MRSA/VISR/LRSA Agents with Reduced hERG Activity” (J Med Chem, 2018) come the findings set out here.

For this experiment, the target named is 4,4'-diapophytoene synthase (Staphylococcus aureus, UniProt A9JQL9). The experiment in a line: Inhibition of CrtM in Staphylococcus aureus assessed as reduction in staphyloxanthin levels after 72 hrs by spectrophotometric method.

Usually IC50 stands for the midpoint of a concentration-inhibition curve.

Sequence of 4,4'-diapophytoene synthase (A9JQL9 whole entry): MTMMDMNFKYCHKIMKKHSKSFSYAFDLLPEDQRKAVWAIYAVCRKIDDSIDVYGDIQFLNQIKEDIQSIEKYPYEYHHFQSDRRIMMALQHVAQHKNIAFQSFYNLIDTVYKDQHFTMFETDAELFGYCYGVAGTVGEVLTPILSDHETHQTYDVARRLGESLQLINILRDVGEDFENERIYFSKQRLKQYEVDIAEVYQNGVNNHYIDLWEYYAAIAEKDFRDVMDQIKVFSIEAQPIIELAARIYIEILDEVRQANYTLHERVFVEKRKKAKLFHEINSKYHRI

Regarding `O=P(O)(O)C(CCCc1cccc(Oc2ccccc2)c1)S(=O)(=O)O` (stereo unspecified), the IC50 stood at 110 nM.
